In US20230382904A1, “SUBSTITUTED 4-([1,2,4]TRIAZOLO[1,5-a]PYRIDIN-6-YL)THIOPHENE-2-CARBOXAMIDE DERIVATIVES AND USE THEREOF” (The Johns Hopkins University, priority 2020, published 2023):

Key:
DLK = DLK (Homo sapiens (Human), UniProt Q12852); assay: DLK biochemical assay (TR-FRET, MKK7 phosphorylation)
In short: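 Catalytic-domain DLK (10 nM) phosphorylates His-MKK7 (15 nM) with 60 μM ATP, 90 min at RT, in pH 7.5 HEPES buffer. Phospho-T275/S277 read by TR-FRET (Eu anti-phospho donor, XL665 anti-His acceptor) after 16 h detection, at 37° C. in 1536 or 4° C. in 384 format.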

[1] = Ischemia/Reperfusion (I/R) rat model, optokinetic tracking; type: in vivo; settings: prophylactic setting, after a 20 minute ischemic event
Experimental: The animals were placed under anesthesia (Rompun (Xylazin als Xylazinhydrochlorid) 2%, Bayer, PZN-1320422, Ketavet (Ketaminhydrochlorid) 100 mg/mL, Pfizer, PZN-3151811) and the pupil on the right eye dilated (Neosynephrin-POS 5% Augentropfen, […], PZN 0828584).
When anesthetized, local anesthetic eye drops (Alcaine, lokalanästhetische Augentropfen, Alcon, 37516058) were applied to the right eye. The rat is on the left side. After a short exposure time, a 30G cannula was inserted laterally into the anterior chamber of the eye. To do this, the eye was fixed with a cotton swab so that it emerged from the eye socket. Once the cannula was placed, the eye was carefully released. The 30G cannula was connected via infusion set to a bag of isotonic infusion solution. The infusion bag hung in a pressure cuff. The pressure was regulated via the pressure cuff and the manometer. For the model, the intraocular pressure is increased to 120 mm Hg. The duration is 20 min. If the cannula fits correctly, the eye turns white, because the blood circulation was interrupted. During treatment, the rats lied on a warm mat (level 2). It was necessary to observe the anesthetic state of the animal. […]
For the optomotry readout only the spatial resolution is measured (spatial frequency). Both eyes were measured. […]

Chain of DLK (Q12852 1-520): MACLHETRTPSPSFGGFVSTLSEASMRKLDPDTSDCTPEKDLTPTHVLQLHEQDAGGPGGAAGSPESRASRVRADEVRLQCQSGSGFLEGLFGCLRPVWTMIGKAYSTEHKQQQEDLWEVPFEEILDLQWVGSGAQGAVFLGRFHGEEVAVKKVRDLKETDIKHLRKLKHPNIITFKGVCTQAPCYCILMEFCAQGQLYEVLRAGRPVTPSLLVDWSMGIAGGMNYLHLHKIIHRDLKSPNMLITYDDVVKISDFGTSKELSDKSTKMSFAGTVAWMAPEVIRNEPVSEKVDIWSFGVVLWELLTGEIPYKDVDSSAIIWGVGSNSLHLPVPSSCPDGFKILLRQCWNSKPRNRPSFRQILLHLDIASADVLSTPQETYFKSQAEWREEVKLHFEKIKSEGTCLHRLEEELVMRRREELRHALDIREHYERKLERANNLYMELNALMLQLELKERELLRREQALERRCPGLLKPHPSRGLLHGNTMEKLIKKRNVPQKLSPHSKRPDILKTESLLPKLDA

For CC[C@H](NC(=O)c1cc(-c2cc(C(=O)N[C@@H](C)CC)c3nc(N)nn3c2)cs1)c1ccc(F)cc1 [Compound 112, 2-Amino-N-[(2S)-butan-2-yl]-6-(5-{[(1S)-1-(4-fluorophenyl)propyl]carbamoyl}thiophen-3-yl)[1,2,4]triazolo[1,5-a]pyridine-8-carboxamide], the IC50 (DLK) was 3.2 nM and the retained vision [1] was ~80%.
